{"source": "ChEMBL document CHEMBL4834408", "about": "“Sesquiterpenoids from Chrysanthemum indicum with Inhibitory Effects on NO Production” (J Nat Prod, 2021)", "key": {"RAW264.7": {"system": "RAW264.7", "assay": "Inhibition of LPS induced NO production in mouse RAW264.7 cells measured after 24 hrs by Griess reagent based assay", "assay_type": "functional, cell-based", "settings": "RAW264.7, 24 h"}, "[1]": {"assay": "Cytotoxicity against mouse RAW264.7 cells assessed as reduction in cell viability measured after 24 hrs by MTT assay", "assay_type": "cell-based"}}, "data": [{"compound": "C[C@@H]1O[C@@H](OC[C@H]2O[C@@H](Oc3cc(O)c4c(=O)cc(-c5ccc(O)c(O)c5)oc4c3)[C@H](O)[C@@H](O)[C@@H]2O)[C@H](O)[C@H](O)[C@H]1O", "values": [{"measurement": "IC50", "setting": "RAW264.7", "value": "> 100", "unit": "µM"}, {"measurement": "CC50 at 24 h", "setting": "[1]", "value": "> 100", "unit": "µM"}]}, {"compound": "O=C(O)[C@H]1O[C@@H](Oc2cc(O)c3c(=O)cc(-c4ccc(O)cc4)oc3c2)[C@H](O)[C@@H](O)[C@@H]1O", "values": [{"measurement": "IC50", "setting": "RAW264.7", "value": "> 100", "unit": "µM"}, {"measurement": "CC50 at 24 h", "setting": "[1]", "value": "> 100", "unit": "µM"}]}, {"compound": "C=C1C(=O)O[C@H]2[C@H]1[C@@H](OC(=O)/C(C)=C\\C)CC(C)=C1C[C@@H]3O[C@]3(C)[C@@H]12", "values": [{"measurement": "IC50", "setting": "RAW264.7", "value": 0.2, "unit": "µM"}, {"measurement": "CC50 at 24 h", "setting": "[1]", "value": 21.7, "unit": "µM"}]}, {"compound": "O=C(O)[C@H]1O[C@@H](Oc2cc(O)c3c(=O)cc(-c4ccc(O)c(O)c4)oc3c2)[C@H](O)[C@@H](O)[C@@H]1O", "values": [{"measurement": "IC50", "setting": "RAW264.7", "value": "> 100", "unit": "µM"}, {"measurement": "CC50 at 24 h", "setting": "[1]", "value": "> 100", "unit": "µM"}]}, {"compound": "CC(=O)/C=C/[C@]1(O)C(C)(C)C[C@H](O)C[C@@]1(C)O", "values": [{"measurement": "IC50", "setting": "RAW264.7", "value": 29.9, "unit": "µM"}, {"measurement": "CC50 at 24 h", "setting": "[1]", "value": "> 100", "unit": "µM"}]}, {"compound": "C=C1C(=O)O[C@H]2[C@H]1[C@@H](OC(=O)C(C)CC)CC(C)=C1C[C@@H]3O[C@]3(C)[C@@H]12", "note": "(stereo partly drawn)", "values": [{"measurement": "IC50", "setting": "RAW264.7", "value": 3, "unit": "µM"}, {"measurement": "CC50 at 24 h", "setting": "[1]", "value": 21.5, "unit": "µM"}]}, {"compound": "C=C1C(=O)O[C@@H]2[C@H]3C(C)=CC(=O)[C@H]3[C@@H](C)C[C@H](OC(=O)/C(C)=C\\C)[C@@H]12", "values": [{"measurement": "IC50", "setting": "RAW264.7", "value": 1.8, "unit": "µM"}, {"measurement": "CC50 at 24 h", "setting": "[1]", "value": 22.5, "unit": "µM"}]}, {"compound": "CC1=CC[C@H](C(C)(C)O)CC1=O", "values": [{"measurement": "IC50", "setting": "RAW264.7", "value": 48.8, "unit": "µM"}, {"measurement": "CC50 at 24 h", "setting": "[1]", "value": 98, "unit": "µM"}]}, {"compound": "C=C[C@@](C)(O)C[C@H](O)/C=C(\\C)CC(=O)C=C(C)C", "values": [{"measurement": "IC50", "setting": "RAW264.7", "value": 48.4, "unit": "µM"}, {"measurement": "CC50 at 24 h", "setting": "[1]", "value": "> 100", "unit": "µM"}]}, {"compound": "COc1ccc(-c2cc(=O)c3c(O)cc(O[C@@H]4O[C@H](C(=O)O)[C@@H](O)[C@H](O)[C@H]4O)cc3o2)cc1", "values": [{"measurement": "IC50", "setting": "RAW264.7", "value": 92.4, "unit": "µM"}, {"measurement": "CC50 at 24 h", "setting": "[1]", "value": "> 100", "unit": "µM"}]}, {"compound": "C=C[C@](C)(CCC/C(C)=C/C(=O)C=C(C)C)O[C@@H]1O[C@H](CO)[C@@H](O)[C@H](O)[C@H]1O", "values": [{"measurement": "IC50", "setting": "RAW264.7", "value": "> 100", "unit": "µM"}, {"measurement": "CC50 at 24 h", "setting": "[1]", "value": "> 100", "unit": "µM"}]}, {"compound": "C=C1C(=O)O[C@@H]2/C=C(\\C)CC/C=C(\\C)C[C@H](OC(=O)/C(C)=C\\C)[C@@H]12", "values": [{"measurement": "IC50", "setting": "RAW264.7", "value": 9.9, "unit": "µM"}, {"measurement": "CC50 at 24 h", "setting": "[1]", "value": 27, "unit": "µM"}]}, {"compound": "CC1=CC[C@H]([C@](C)(O)C/C=C/C(C)(C)O)CC1=O", "values": [{"measurement": "IC50", "setting": "RAW264.7", "value": "> 100", "unit": "µM"}, {"measurement": "CC50 at 24 h", "setting": "[1]", "value": "> 100", "unit": "µM"}]}, {"compound": "C=C[C@](C)(CC/C=C(\\C)CC(=O)C=C(C)C)O[C@@H]1O[C@H](CO)[C@@H](O)[C@H](O)[C@H]1O", "values": [{"measurement": "IC50", "setting": "RAW264.7", "value": "> 100", "unit": "µM"}, {"measurement": "CC50 at 24 h", "setting": "[1]", "value": "> 100", "unit": "µM"}]}, {"compound": "C=C[C@](C)(CC/C=C(\\C)CC(=O)CC(C)C)O[C@@H]1O[C@H](CO)[C@@H](O)[C@H](O)[C@H]1O", "values": [{"measurement": "IC50", "setting": "RAW264.7", "value": "> 100", "unit": "µM"}, {"measurement": "CC50 at 24 h", "setting": "[1]", "value": "> 100", "unit": "µM"}]}, {"compound": "C=C[C@](C)(CCC/C(C)=C\\C(=O)C=C(C)C)O[C@@H]1O[C@H](CO)[C@@H](O)[C@H](O)[C@H]1O", "values": [{"measurement": "IC50", "setting": "RAW264.7", "value": 97.8, "unit": "µM"}, {"measurement": "CC50 at 24 h", "setting": "[1]", "value": "> 100", "unit": "µM"}]}, {"compound": "C=C(C)C(O)CC[C@@](C)(O)[C@H]1CC=C(C)C(=O)C1", "note": "(stereo partly drawn)", "values": [{"measurement": "IC50", "setting": "RAW264.7", "value": "> 100", "unit": "µM"}, {"measurement": "CC50 at 24 h", "setting": "[1]", "value": "> 100", "unit": "µM"}]}, {"compound": "C=C1C(=O)O[C@@H]2[C@H]3C(C)=CC(=O)[C@@H]3[C@@H](C)C[C@H](OC(=O)/C(C)=C\\C)[C@@H]12", "values": [{"measurement": "IC50", "setting": "RAW264.7", "value": 27, "unit": "µM"}, {"measurement": "CC50 at 24 h", "setting": "[1]", "value": "> 100", "unit": "µM"}]}, {"compound": "COc1ccc(-c2cc(=O)c3c(O)cc(O)cc3o2)cc1", "note": "[ACACETIN]", "values": [{"measurement": "IC50", "setting": "RAW264.7", "value": 5.9, "unit": "µM"}, {"measurement": "CC50 at 24 h", "setting": "[1]", "value": 60.9, "unit": "µM"}]}, {"compound": "COc1ccc(-c2cc(=O)c3c(O)cc(O[C@@H]4O[C@H](CO[C@@H]5O[C@@H](C)[C@H](O)[C@@H](O)[C@H]5O)[C@@H](O)[C@H](O)[C@H]4O)cc3o2)cc1", "note": "[ACACIIN]", "values": [{"measurement": "IC50", "setting": "RAW264.7", "value": "> 100", "unit": "µM"}, {"measurement": "CC50 at 24 h", "setting": "[1]", "value": "> 100", "unit": "µM"}]}, {"compound": "O=c1cc(-c2ccc(O)cc2)oc2cc(O)cc(O)c12", "note": "[APIGENIN]", "values": [{"measurement": "IC50", "setting": "RAW264.7", "value": 18.4, "unit": "µM"}, {"measurement": "CC50 at 24 h", "setting": "[1]", "value": 65.1, "unit": "µM"}]}, {"compound": "O=c1cc(-c2ccc(O)cc2)oc2cc(O[C@@H]3O[C@H](CO)[C@@H](O)[C@H](O)[C@H]3O)cc(O)c12", "note": "[APIGETRIN]", "values": [{"measurement": "IC50", "setting": "RAW264.7", "value": 53.7, "unit": "µM"}, {"measurement": "CC50 at 24 h", "setting": "[1]", "value": "> 100", "unit": "µM"}]}, {"compound": "COc1ccc(-c2cc(=O)c3c(O)cc(O)cc3o2)cc1O", "note": "[DIOSMETIN]", "values": [{"measurement": "IC50", "setting": "RAW264.7", "value": 34.5, "unit": "µM"}]}, {"compound": "O=c1cc(-c2ccc(O)c(O)c2)oc2cc(O[C@@H]3O[C@H](CO)[C@@H](O)[C@H](O)[C@H]3O)cc(O)c12", "note": "[GALUTEOLIN]", "values": [{"measurement": "IC50", "setting": "RAW264.7", "value": 87.5, "unit": "µM"}, {"measurement": "CC50 at 24 h", "setting": "[1]", "value": "> 100", "unit": "µM"}]}, {"compound": "COc1ccc([C@@H]2CC(=O)c3c(O)cc(O)cc3O2)cc1O", "note": "[HESPERETIN]", "values": [{"measurement": "IC50", "setting": "RAW264.7", "value": 31.2, "unit": "µM"}, {"measurement": "CC50 at 24 h", "setting": "[1]", "value": "> 100", "unit": "µM"}]}, {"compound": "CC1(C)C[C@H](O)C[C@@]2(C)OC(=O)C=C12", "note": "[LOLIOLIDE]", "values": [{"measurement": "IC50", "setting": "RAW264.7", "value": 56.7, "unit": "µM"}, {"measurement": "CC50 at 24 h", "setting": "[1]", "value": "> 100", "unit": "µM"}]}, {"compound": "COc1ccc(-c2cc(=O)c3c(O)cc(O[C@@H]4O[C@H](CO)[C@@H](O)[C@H](O)[C@H]4O)cc3o2)cc1", "note": "[TILIANINE]", "values": [{"measurement": "IC50", "setting": "RAW264.7", "value": 45.4, "unit": "µM"}, {"measurement": "CC50 at 24 h", "setting": "[1]", "value": "> 100", "unit": "µM"}]}]}
